Laboratory results reported in patent US10138265B2, “Uridine nucleoside derivatives, compositions and methods of use” (Tufts University, priority 2013, dated 2018).
Like-named read-outs stand apart in the source and are kept apart here.

Columns and labels:
[1] = target: T1, P2Y6 receptor (Homo sapiens, UniProt Q15077); assay: Activation of P2Y6 receptor: receptor induced Ca2+ changes with fluo-4 in 1321N1 astrocytoma cells; assay type: cell-based; set-up: expressed in transfected cells; host or cells: 1321N1 human astrocytoma cells
Method: (§1) Synthetic ligands were tested for activation of P2Y6 receptor by measuring receptor induced Ca^2+ changes with the fluorescent Ca^2+ indicator fluo-4. 1321N1 human astrocytoma cell lines either expressing P2Y2, P2Y4 or P2Y6 receptors were plated into 24-well plates. Two days after plating, fluorometric measurements were made and responses of cells to a serial dilution of ligands were determined P2Y6 receptor mediated Ca^2+ fluorescent change was determined by normalized accumulation of fluorescent change of 3 timepoints after ligand administration subtracted by value from ACSF control. Changes in fluorescent intensity were plotted corresponding to ligand concention in GraphPad. Dose-response curve and EC50 for each ligand was estimated using nonlinear curve fit and Sigmoidal dose-response analysis. […]
(§2) Synthetic ligands were tested for activation of P2Y6 receptor by measuring receptor induced Ca^2+ changes with the fluorescent Ca^2+ indicator fluo-4, and results are shown in FIG. 10(A)-(K). […] Two days after plating, fluorometric measurements were made and responses of cells to a serial dilution of ligands were determined P2Y6 receptor mediated Ca^2+ fluorescent change was determined by normalized accumulation of fluorescent change of 3 timepoints after ligand administration subtracted by value from ACSF control. […]

[2] = target: T2, P2Y4 receptor (Homo sapiens, UniProt P51582); assay: Ca2+ mobilizing effect (fluo-4) in 1321N1 astrocytoma cells expressing P2Y4; assay type: cell-based; conditions: 1321N1 human astrocytoma cells expressing P2Y4
T2 construct: expressed in transfected cells; host or cells: 1321N1 human astrocytoma cells
Method: as §1, §2

[3] = target: T3, P2Y2 receptor (Homo sapiens, UniProt P41231); assay: Ca2+ mobilizing effect (fluo-4) in 1321N1 astrocytoma cells expressing P2Y2; assay type: cell-based; conditions: 1321N1 human astrocytoma cells expressing P2Y2
T3 construct: expressed in transfected cells; host or cells: 1321N1 human astrocytoma cells
Method: as §1, §2

[4] = tested on: PSAPP mice; assay: Contextual fear conditioning test (freezing behavior); assay type: in vivo, mouse
Method: On day one, animals were trained in a fear conditioning apparatus for a total of 7 minutes with a two-pairing paradigm of cue and mild foot shock (a 30-s acoustic-conditioned stimulus, 80 dB; a 2-s shock stimulus, 0.5 mA). To evaluate contextual fear learning, the animals were returned to the training context 24 hours post-training, and freezing behavior was scored for 5 minutes. Freezing behavior was monitored by MotorMonitor (Hamilton Kinder) and scored every 5 seconds.
In this study, the fear conditioning associative learning paradigm was used as a rapid cognition assay for PSAPP mice. This study allowed us to probe cognitive function with a single training day followed in 24 hours by tests for contextual and cued fear learning. Contextual fear learning is dependent upon a brain area that has been implicated as a locus for cognitive decline in AD: the hippocampus. Two pairings of CS—US for fear conditioning were followed 24 hours later by testing for contextual and cued fear learning. Previous studies have reported that PSAPP animals appear to have a selective hippocampus-dependent impairment in associative learning following two pairings of conditioned stimuli for fear conditioning.
This represents a decrease in the cognitive impairment observed in the untreated mice.

[5] = tested on: PSAPP mice; assay: Postmortem immunohistochemistry of plaque load in cortex and hippocampus; assay type: in vivo, mouse
[6] = tested on: PSAPP mice; assay: Hippocampal long-term potentiation (LTP) recording; assay type: in vivo, mouse; conditions: acute treatment
Method: Hippocampal slices (350 μm thick) were prepared from 6-month-old PSAPP mice. Baseline responses were obtained every 10 seconds and Input-output (I/O) curves, paired-pulse modification and LTP were successively measured. The stimulation intensity was set to a level that gives a value of 30% of the maximum obtained. LTP were induced by high frequency stimulation (HFS, 100 pulses at 100 Hz, four times) or by theta-burst stimulation (TBS, 10 bursts at 5 Hz, repeated 10 times in 15 s intervals).
Accumulated evidence has shown that amyloid peptides naturally secreted or isolated from Alzheimer's brains impair synaptic plasticity, especially hippocampal long-term potentiation (Walsh et al., 2002). Therefore, we further performed LTP recordings in PASPP mice and investigated whether P2Y6 receptor-mediated plaque clearance affects synaptic plasticity. […] First, it was observed that LTP at the schaffer collateral synapse within the CA1 region was depressed in PSAPP mice, as compared with littermates (FIG. 8(A)).

[7] = tested on: PSAPP mice; assay: Two-photon in vivo imaging of methoxyX04 labeled amyloid plaques in barrel cortex; set-up: species or system mouse; conditions: acute i.c.v. treatment
Source text: In this study, PSAPP mice were anesthetized using isoflurane and a thin-skull preparation was used to minimize the surface damage. Amyloid plaques were visualized with methoxyX04 labeling and blood plasma was labeled with Rhodamine dextran to facilitate re-localization of the same imaging area. Stack images were obtained using a two-photon system (Prairie Technologies) with excitation at 850 nm. The emission was detected by external photomultiplier tubes (525/70; DLCP 575; 607/45 nm). Animals were anesthetized and immobilized in a stereotaxic frame. For each injection, 1 μl of 10 mM UDP or other suitable compounds in artificial cerebrospinal fluid (ACSF) as the vehicle were injected intraventricularly using the following coordinates: AP 0.2 mm, ML 1 mm, and DV 2.2 mm. To evaluate the effect of UDP on plaque burden, two-photon microscopy was used to assess the amyloid plaques in the barrel cortex in living PSAPP mice. Amyloid plaques were stained by systemically administered methoxy-[…]. One day prior to imaging, PSAPP mice were injected with methoxyX04 to label the amyloid plaques. On the imaging day, to facilitate the re-location of the same imaging area, blood plasma was labeled with Rhodamine dextran. Images were obtained from the same start- and end-point to ensure the same image volume. The results were shown in a maximum intensity projection of a fluorescent stack containing 45 planes. Representative images of methoxyX04 labeled amyloid plaques and angiopathy on days 1 are shown in FIG. 1(A)-(C) Immediately after imaging, animals were injected with ACSF or UDP intracerebroventricularly (i.c.v.) and allowed to recover. On day 4, animals were subjected to a second period of imaging of the same regions studied on day 1 and the results are shown in FIG. 1(D)-(F). The similar pattern of angiopathy (shown by open arrows) indicated the same imaging area.

[8] = tested on: PSAPP mice; assay: Postmortem immunohistochemistry of plaque load in cortex and hippocampus; assay type: in vivo, mouse; remark: listed apart in the source
Method: Mice were perfused transcardially with 4% paraformaldehyde and 40 μm Coronal sections were collected. Sections were sequentially incubated in 0.3% H2O2 for 10 minutes, blocking solution for 2 hrs, blocking solution containing the primary antibody (rabbit anti-beta 1-42; rabbit anti-beta1-40, from Chemicon International and rat anti-CD45) for 48 hours at 4° C., and blocking solution containing biotinylated antibody or fluorescently-labeled antibody for 2 hours at room temperature. Sections were visualized in a bright field microscope or a confocal microscope, and the optical density was obtained using MetaMorph software.
After repeated imaging, brains were fixed and subjected to postmortem immunohistochemistry with amyloid beta specific antibodies β1-40 and β1-42 to evaluate the plaque load (area occupied by immunostaining of plaque) in cortex and hippocampus.
(§3) PSB0474 was systemically administered to PSAPP mice via intraperitoneal injection for 2, 4 and 6 consecutive days. In one group, prior to evaluation and following to administration for 6 consecutive days, treatment was suspended for two weeks (6+2 weeks group). Brains were then fixed and plaque load was evaluated by immunostaining with the amyloid beta specific antibodies: β1-40 and β1-42. Representative images of plaque load in cortex and hippocampus from animals that received injections of PSB0474 according to the foregoing injection schedules are shown in FIG. 5(A)-(D). […] Whereas, when administration of PSB0474 was stopped for 2 weeks following six consecutive days of treatment (denoted as the 6+2 weeks group), β1-40 staining rebounded; although to a level lower than observed in mice treated with saline as a vehicle control. FIGS. 6A and 6B depict the reduction in plaque load (%) the cortex and hippocampus, respectively, in PSAPP mice after treatment with 3-phenacyl-UDP for 2, 4, or 6 consecutive days, as assayed by staining with the β1-40 antibody. FIGS. 6C-6F depict data obtained following administration of different dosages of PSB0474.
To generate these graphs showing plaque load, mice were euthanized, brain sections cut and antibodies directed against Aβ42 were used to disclose Aβ plaques. Images were acquired digitally and an algorithm was applied to threshold the image so that plaques were isolated from the background. The algorithm then calculated the percent area of the field of view occupied by the plaques.
Brain samples were collected for Abeta analysis with immunostaining. Brains samples were collected after transcardial perfusion with phosphate buffer and 4% paraformaldehyde. Floating brain sections (40 µm) were collected using a microtome. Immunostaining for Aβ40 and Aβ42 were performed according to previously established protocol. Images with DAB staining were collected with brightfield microscopy and analyzed with ImageJ Macro. All data analysis and statistics were performed in GraphPad Prism 6.0.

[9] = target: T1, P2Y6 receptor; conditions: cited from earlier work
[10] = tested on: PSAPP mice; assay: Tolerability of a higher dose in the plaque burden study; assay type: in vivo, mouse; conditions: 1000× increase in dose
Method: as §3

[11] = Oral bioavailability; conditions: in vivo
[12] = Half-life in human whole blood; assay type: in vitro ADME
[13] = barrel cortex, day 4 vs day 1, P<0.01
[14] = 10 ug/kg i.p. once per day for 7 days, PS1/APP mice, cortex

T1 sequence (Q15077 whole entry): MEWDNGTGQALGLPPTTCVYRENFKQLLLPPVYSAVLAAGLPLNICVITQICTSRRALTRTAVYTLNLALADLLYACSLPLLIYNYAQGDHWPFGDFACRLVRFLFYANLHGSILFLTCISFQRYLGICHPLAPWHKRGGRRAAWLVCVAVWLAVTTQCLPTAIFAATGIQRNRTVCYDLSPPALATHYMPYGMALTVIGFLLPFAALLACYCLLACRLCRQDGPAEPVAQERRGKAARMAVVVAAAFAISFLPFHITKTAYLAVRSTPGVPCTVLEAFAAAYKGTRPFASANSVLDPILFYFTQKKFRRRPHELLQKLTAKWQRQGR
T3 sequence (P41231 whole entry): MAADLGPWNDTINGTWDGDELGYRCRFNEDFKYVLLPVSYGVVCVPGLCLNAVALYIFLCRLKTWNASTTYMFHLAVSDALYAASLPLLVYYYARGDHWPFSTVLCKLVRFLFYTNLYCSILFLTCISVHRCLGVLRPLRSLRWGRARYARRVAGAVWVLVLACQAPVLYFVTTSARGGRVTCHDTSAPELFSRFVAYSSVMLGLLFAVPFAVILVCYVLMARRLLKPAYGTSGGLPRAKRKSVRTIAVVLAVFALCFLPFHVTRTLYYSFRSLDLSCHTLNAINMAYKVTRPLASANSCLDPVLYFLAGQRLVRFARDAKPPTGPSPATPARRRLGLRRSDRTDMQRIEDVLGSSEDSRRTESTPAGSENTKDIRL
T2 sequence (P51582 whole entry): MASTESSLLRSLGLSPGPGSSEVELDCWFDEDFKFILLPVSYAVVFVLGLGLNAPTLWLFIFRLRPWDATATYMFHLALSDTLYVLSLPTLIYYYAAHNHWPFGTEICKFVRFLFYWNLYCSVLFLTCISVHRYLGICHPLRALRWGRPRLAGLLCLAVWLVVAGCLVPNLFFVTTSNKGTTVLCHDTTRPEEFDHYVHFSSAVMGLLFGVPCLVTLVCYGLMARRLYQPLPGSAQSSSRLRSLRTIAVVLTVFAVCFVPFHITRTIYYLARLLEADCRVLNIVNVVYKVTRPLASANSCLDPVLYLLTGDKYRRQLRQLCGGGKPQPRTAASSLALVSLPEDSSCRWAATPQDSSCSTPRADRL

O=c1ccn([C@@H]2O[C@H](COP(=O)(O)OP(=O)(O)O)[C@@H](O)[C@H]2O)c(=O)n1Cc1noc2ccccc12
EC50 ([1]; 1321N1 human astrocytoma cells expressing P2Y6, fluo-4 Ca2+): 12 nM | ability to elevate Ca2+ signals in P2Y6 receptor expressing cells on addition of P2Y6 antagonist MRS2578 ([1]; with MRS2578): attenuated | elevating Ca2+ levels in P2Y4 receptor expressing cells [2]: not effective | elevating Ca2+ levels in P2Y2 receptor expressing cells [3]: not effective

O=c1ccn([C@@H]2O[C@H](COP(=O)(O)OP(=O)(O)O)[C@@H](O)[C@H]2O)c(=O)[nH]1 [UDP, uridine diphosphate]
total freezing percentage ([4]; acute i.c.v. treatment, ACSF control 18%±3%): 49%±5% | decrease in plaque load, hippocampus ([5]; β1-42 antibody staining, hippocampus, acute i.c.v., P<0.05): 47% | LTP at CA1 of hippocampus compared with ACSF ([6]; HFS): significantly increased | field excitatory postsynaptic potential (fEPSP), last 15 min potentiation ([6]; comparable to littermates): significant increase | reduction in plaque load [7, 13]: 17.2% | reduction in the number of plaques [7, 13]: 12.6% | reduction in cross-sectional area of individual identified plaques ([7]; second imaging session, P<0.01): 18.2% | decrease in plaque load, cortex ([8]; β1-40 antibody staining, cortex, acute i.c.v., p<0.05): 60% | decrease in plaque load, hippocampus ([8]; β1-40 antibody staining, hippocampus, acute i.c.v., p<0.01): 62% | decrease in plaque load, cortex ([8]; β1-42 antibody staining, cortex, acute i.c.v., P<0.01): 48%

O=C(Cn1c(=O)ccn([C@@H]2O[C@H](COP(=O)(O)OP(=O)(O)O)[C@@H](O)[C@H]2O)c1=O)c1ccccc1 [3-phenacyl-UDP]
total freezing percentage in context test ([4]; chronic injection, two doses): increased | selectivity for P2Y6 receptor [9]: > 500 fold | EC50 ([9]; read-out: EC50, P2Y6 receptor agonist): 70 nM | effects on the efficacy endpoint at the higher dose ([8]; 1 mg/kg, one week daily): smaller effects | β1-40 staining after treatment stopped ([8]; 6 consecutive days i.p., then stopped for 2 weeks (6+2 weeks group), level lower than saline control): rebounded | immunoreactivity of β1-40 in both cortex and hippocampus ([8]; i.p. for 4 and 6 consecutive days): significantly decreased | detrimental effects to the animal [10]: did not cause detrimental effects

O=c1ccn([C@@H]2O[C@H](CO)[C@H](O)C2O)c(=O)n1Cc1noc2ccccc12 (some centres unmarked) [compound 5]
Aβ40 plaque burden [5, 14]: significantly reduced | bioavailability [11]: 72.2% | half-life [12]: 16.4 h | size distribution of remaining plaques ([8]; 10 ug/kg i.p. once per day for 7 days, PS1/APP mice): significantly reduced | Aβ42 plaque burden [8, 14]: significantly reduced
